Experimental data as given in paper PMC7058665, “GPU-Accelerated Discovery of Pathogen-Derived Molecular Mimics of a T-Cell Insulin Epitope” (Frontiers in Immunology, 2020).
Where no end group is shown, it is not given here.
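Further: T-cell clone rested overnight in 5% FBS medium, then cultured overnight with peptide titrations, MIP-1β released into supernatant measured by ELISA.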

Each molecule was assayed on InsB4 T-cell clone. Conditions: not given.
Assay type: cell-based, human
With MLVEGVLLA the EC50 was 55 nM. In the case of ILIERGLTF, the EC50 is reported as 79000 nM. For LLIIGGLLF, the EC50 was 290 nM. With MLIEGVLTV the EC50 was 10 nM. With ILIEGILFF the EC50 was 0.92 nM. With MLVEWALVA the EC50 was 54 nM. For LLVEDLLVL, the EC50 was 200 nM. Work on LLVERQLVL yielded an EC50 of 6600 nM. In the case of IITEGIMTL, the EC50 is reported as 5900 nM. With MLVEEGLLV the EC50 was 97 nM. Work on MLIERVMST yielded an EC50 of 5600 nM. Work on MIVENVPLL yielded an EC50 of 0.17 nM. Work on LQVIRILLA yielded an EC50 of 2600 nM. Work on EMLERGLLV yielded an EC50 of 1600 nM. LMVENVPFA showed an EC50 of 0.052 nM. FLTEWILPL was tested, and the EC50 was 5800 nM. MQLENGLLL showed an EC50 of 6.3 nM. IMYEGLLFV was tested, and the EC50 was 70 nM. FILEGILTV showed an EC50 of 54 nM. LLEENSPML showed an EC50 of 50 nM. ALVENQFLL was tested, and the EC50 was 2200 nM. For LVLEDILLA, the EC50 was 1400 nM. For LILQGVLTM, the EC50 was 2600 nM. Molecule LLLERYFLA has an EC50 of 66 nM. For MIVEGFLLL, the EC50 was 59 nM. Molecule ITIERILTI has an EC50 of 1800 nM. With LLVEGALTG the EC50 was 640 nM. For IVLEGAMIV, the EC50 was 130 nM. For LMLERGFII, the EC50 was 950 nM. FLIEGVLTI was tested, and the EC50 was 55 nM. Molecule LQVENYLPI has an EC50 of 27 nM. MLYENWLLS was tested, and the EC50 was 1900 nM. With LLIENFVTG the EC50 was 5600 nM. Work on LMLENLLTF yielded an EC50 of 2200 nM. Molecule LIEERSPLI has an EC50 of 6100 nM. In the case of FLVEQVLFA, the EC50 is reported as 3300 nM. With LTVEGIFRV the EC50 was 1600 nM. With IIVEDSLLV the EC50 was 1.1 nM. Molecule LLVEGAMTV has an EC50 of 42 nM. Molecule LLVENWPLL has an EC50 of 2.4 nM. Work on LQVEGAMSV yielded an EC50 of 240 nM. In the case of LILERSPTA, the EC50 is reported as 13000 nM. With LLLERMFLF the EC50 was 1400 nM. In the case of ILLENGYLL, the EC50 is reported as 600 nM.

Same assay, conditions: 20 top-scoring fungal peptides, Figure 8; overnight, MIP-1β ELISA; NR = no T-cell response; read-out: EC50 of peptide activation of InsB4
Molecule `CC(C)C[C@H](NC(=O)[C@H](C)NC(=O)[C@H](CCC(=O)O)NC(=O)[C@@H](NC(=O)[C@H](CC(C)C)NC(=O)[C@@H](N)Cc1c[nH]cn1)C(C)C)C(=O)N[C@@H](Cc1ccc(O)cc1)C(=O)N[C@@H](CC(C)C)C(=O)N[C@H](C(=O)O)C(C)C` [reference compound] has an EC50 of 1100 nM. With LLVEDMLLM the EC50 was 390 nM. MQVEWILTF showed an EC50 of 12000 nM. MIIEGFLLI was tested, and the EC50 was 130 nM. Molecule LQLEGQLLL has an EC50 of 3900 nM. ILVERALFT [top-scoring fungal peptide] gave an EC50 greater than 10000 nM. In the case of LIIEWIFFL, the EC50 is reported as 150 nM. Molecule LVVEGSLFV has an EC50 of 340 nM. Work on LIIEWYLIM yielded an EC50 of 860 nM. With LILENYMFA the EC50 was 880 nM. Work on IMLENGPFL [top-scoring fungal peptide] yielded an EC50 greater than 10000 nM. MLLEGMMIV showed an EC50 of 110 nM. With IQLENSLFA the EC50 was 8900 nM. FLLERILIV was tested, and the EC50 was 960 nM.

Same assay, conditions: overnight, MIP-1β ELISA
With “ILLEGILIL [bacterial protein-derived nonamer peptide, Bin 2]” the “agonist activity on InsB4 in words (relative to index HLVEALYLV)” value was “most potent”.
